US6737383B1, “Herbicidal oxadiazolidines” (priority 1999, dated 2004)

Key:
bedstraw = experiment: Test B pre/postemergence bedstraw; format: in vivo, Galium aparine
Summary of the method: (§1)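 Test chemicals in a non-phytotoxic solvent mixture with surfactant were sprayed preemergence onto planted seeds and postemergence onto plants 2 to 18 cm tall (1- to 4-leaf stage). After twelve to sixteen days in a greenhouse, injury was visually rated against untreated controls from 0 (no effect) to 10 (complete control).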

blackgrass = experiment: Test B pre/postemergence blackgrass; format: in vivo, Alopecurus myosuroides
Summary of the method: as §1

surinam grass = experiment: Test B pre/postemergence surinam grass; format: in vivo, Brachiaria decumbens
Summary of the method: as §1

cocklebur = experiment: Test B pre/postemergence cocklebur; format: in vivo, Xanthium strumarium
Summary of the method: as §1

corn = experiment: Test B pre/postemergence corn; format: in vivo, Zea mays
Summary of the method: as §1

crabgrass = experiment: Test B pre/postemergence crabgrass; format: in vivo, Digitaria sanguinalis
Summary of the method: as §1

soybean = experiment: Test B pre/postemergence soybean; format: in vivo, Glycine max
Summary of the method: as §1

sugar beet = experiment: Test B pre/postemergence sugar beet; format: in vivo, Beta vulgaris
Summary of the method: as §1

velvetleaf = experiment: Test B pre/postemergence velvetleaf; format: in vivo, Abutilon theophrasti
Summary of the method: as §1

wheat = experiment: Test B pre/postemergence wheat; format: in vivo, Triticum aestivum
Summary of the method: as §1

wild oat = experiment: Test B pre/postemergence wild oat; format: in vivo, Avena fatua
Summary of the method: as §1

purple nutsedge = experiment: Test B pre/postemergence purple nutsedge; format: in vivo, Cyperus rotundus; conditions: Postemergence
Summary of the method: as §1

rice = experiment: Test B flood test rice; format: in vivo, Oryza sativa
Summary of the method: (§2)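 Each value is a visual injury score relative to controls, with 10 meaning complete control and 0 no effect. Evaluation took place twelve to sixteen days after the 2-leaf-stage plants were treated and kept in the greenhouse.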

smallflower flatsedge = experiment: Test B flood test smallflower flatsedge; format: in vivo, Cyperus difformis
Summary of the method: as §2

duck salad = experiment: Test B flood test duck salad; format: in vivo, Heteranthera limosa
Summary of the method: as §2

bamyardgrass = experiment: Test B flood test barnyardgrass; format: in vivo, Echinochloa crus-galli
Summary of the method: as §2

[1] = Preemergence, Rate 62 g/ha, scale of 0 to 10 where 0 is no effect and 10 is complete control
[2] = Preemergence, Rate 250 g/ha, scale of 0 to 10 where 0 is no effect and 10 is complete control
[3] = Preemergence, Rate 500 g/ha, scale of 0 to 10 where 0 is no effect and 10 is complete control
[4] = Rate 62 g/ha, Postemergence, scale of 0 to 10 where 0 is no effect and 10 is complete control
[5] = Rate 125 g/ha, Postemergence, scale 0 to 10
[6] = Rate 125 g/ha, Preemergence, scale of 0 to 10 where 0 is no effect and 10 is complete control
[7] = Rate 500 g/ha, Postemergence, scale 0 to 10, 0 no effect, 10 complete control
[8] = Rate 62 g/ha, headed Pre-emergence (flood test species), scale 0 to 10 (0 no effect, 10 complete control)
[9] = Rate 125 g/ha, Pre-emergence, flood test species, scale 0 to 10 where 0 is no effect and 10 is complete control
[10] = Rate 250 g/ha, Pre-emergence, flood-test species, scale 0 to 10, 0 is no effect, 10 is complete control
[11] = Rate 500 g/ha, Pre-emergence, flood test species, scale 0 to 10 (0 no effect, 10 complete control)

Structure (SMILES): [2H]C([2H])([2H])n1c(=O)on(C(=O)N(c2ccc(F)cc2)C(C)C)c1=O [Compound 245]
- Bedstraw plant response rating (bedstraw; [1]): 0
- Bedstraw plant response rating (bedstraw; [2]): 9
- Plant response rating, Bedstraw (bedstraw; [3]): 10
- Bedstraw plant response rating (bedstraw; [4]): 3
- Bedstraw plant response rating (bedstraw; [5]): 9
- Bedstraw plant response rating (bedstraw; [6]): 2
- Plant response rating (0 to 10; 0 is no effect, 10 is complete control), Bedstraw (bedstraw; Rate 250 g/ha, Postemergence): 9
- Bedstraw plant response rating (bedstraw; [7]): 9
- Blackgrass plant response rating (blackgrass; [1]): 10
- Blackgrass plant response rating (blackgrass; [2]): 10
- Plant response rating, Blackgrass (blackgrass; [3]): 10
- Blackgrass plant response rating (blackgrass; [4]): 4
- Blackgrass plant response rating (blackgrass; [5]): 7
- Blackgrass plant response rating (blackgrass; [6]): 10
- Plant response rating (0 to 10; 0 is no effect, 10 is complete control), Blackgrass (blackgrass; Rate 250 g/ha, Postemergence): 7
- Blackgrass plant response rating (blackgrass; [7]): 8
- B. signalgrass plant response rating (surinam grass; [1]): 3
- B. signalgrass plant response rating (surinam grass; [2]): 8
- Plant response rating, B. signalgrass (surinam grass; [3]): 10
- B. signalgrass plant response rating (surinam grass; [4]): 1
- B. signalgrass plant response rating (surinam grass; Rate 125 g/ha, Postemergence, scale 0 (no effect) to 10 (complete control)): 4
- B. signalgrass plant response rating (surinam grass; [6]): 7
- Plant response rating (0 to 10; 0 is no effect, 10 is complete control), B. signalgrass (surinam grass; Rate 250 g/ha, Postemergence): 6
- B. signalgrass plant response rating (surinam grass; [7]): 8
- Cocklebur plant response rating (cocklebur; [1]): 0
- Cocklebur plant response rating (cocklebur; [2]): 2
- Plant response rating, Cocklebur (cocklebur; [3]): 6
- Cocklebur plant response rating (cocklebur; [4]): 0
- Cocklebur plant response rating (cocklebur; [5]): 0
- Cocklebur plant response rating (cocklebur; [6]): 2
- Plant response rating (0 to 10; 0 is no effect, 10 is complete control), Cocklebur (cocklebur; Rate 250 g/ha, Postemergence): 0
- Cocklebur plant response rating (cocklebur; [7]): 1
- Corn plant response rating (corn; [1]): 3
- Corn plant response rating (corn; [2]): 7
- Plant response rating, Corn (corn; [3]): 8
- Corn plant response rating (corn; [4]): 0
- Corn plant response rating (corn; [5]): 4
- Corn plant response rating (corn; [6]): 5
- Plant response rating (0 to 10; 0 is no effect, 10 is complete control), Corn (corn; Rate 250 g/ha, Postemergence): 5
- Corn plant response rating (corn; [7]): 7
- Crabgrass plant response rating (crabgrass; [1]): 9
- Crabgrass plant response rating (crabgrass; [2]): 9
- Plant response rating, Crabgrass (crabgrass; [3]): 10
- Crabgrass plant response rating (crabgrass; [4]): 2
- Crabgrass plant response rating (crabgrass; [6]): 9
- Plant response rating (0 to 10; 0 is no effect, 10 is complete control), Crabgrass (crabgrass; Rate 250 g/ha, Postemergence): 8
- Crabgrass plant response rating (crabgrass; [7]): 8
- Soybean plant response rating (soybean; [1]): 0
- Soybean plant response rating (soybean; [2]): 2
- Plant response rating, Soybean (soybean; [3]): 8
- Soybean plant response rating (soybean; [4]): 2
- Soybean plant response rating (soybean; [6]): 2
- Soybean plant response rating (soybean; [7]): 5
- Sugarbeets plant response rating (sugar beet; [1]): 3
- Sugarbeets plant response rating (sugar beet; [2]): 10
- Plant response rating, Sugarbeets (sugar beet; [3]): 10
- Sugarbeets plant response rating (sugar beet; [4]): 1
- Sugarbeets plant response rating (sugar beet; [6]): 8
- Sugarbeets plant response rating (sugar beet; [7]): 7
- Velvetleaf plant response rating (velvetleaf; [1]): 7
- Velvetleaf plant response rating (velvetleaf; [2]): 10
- Plant response rating, Velvetleaf (velvetleaf; [3]): 10
- Velvetleaf plant response rating (velvetleaf; [4]): 3
- Velvetleaf plant response rating (velvetleaf; [6]): 7
- Velvetleaf plant response rating (velvetleaf; [7]): 7
- Wheat plant response rating (wheat; [1]): 6
- Wheat plant response rating (wheat; [2]): 7
- Plant response rating, Wheat (wheat; [3]): 9
- Wheat plant response rating (wheat; [4]): 4
- Wheat plant response rating (wheat; [6]): 6
- Wheat plant response rating (wheat; [7]): 8
- Wild oats plant response rating (wild oat; [1]): 3
- Wild oats plant response rating (wild oat; [2]): 10
- Plant response rating, Wild oats (wild oat; [3]): 10
- Wild oats plant response rating (wild oat; [4]): 0
- Wild oats plant response rating (wild oat; [6]): 5
- Wild oats plant response rating (wild oat; [7]): 8
- Nutsedge plant response rating (purple nutsedge; Rate 62 g/ha, scale of 0 to 10 where 0 is no effect and 10 is complete control): 0
- Plant response rating (0 to 10; 0 is no effect, 10 is complete control), Nutsedge (purple nutsedge; Rate 250 g/ha): 0
- Nutsedge plant response rating (purple nutsedge; Rate 500 g/ha, scale 0 to 10, 0 no effect, 10 complete control): 0
- Rice plant response rating (rice; [8]): 0
- Rice plant response rating (rice; [9]): 0
- Rice plant response rating (rice; [10]): 0
- Rice plant response rating (rice; [11]): 0
- S. Flatsedge plant response rating (smallflower flatsedge; [8]): 0
- S. Flatsedge plant response rating (smallflower flatsedge; [9]): 0
- S. Flatsedge plant response rating (smallflower flatsedge; [10]): 0
- S. Flatsedge plant response rating (smallflower flatsedge; [11]): 0
- Ducksalad plant response rating (duck salad; [8]): 0
- Ducksalad plant response rating (duck salad; [9]): 0
- Ducksalad plant response rating (duck salad; [10]): 0
- Ducksalad plant response rating (duck salad; [11]): 0
- Barnyardgrass plant response rating (bamyardgrass; [8]): 0
- Barnyardgrass plant response rating (bamyardgrass; [9]): 0
- Barnyardgrass plant response rating (bamyardgrass; [10]): 0
- Barnyardgrass plant response rating (bamyardgrass; [11]): 0
